In ChEMBL document CHEMBL1139383, “Carbonic anhydrase inhibitors. Comparison of chlorthalidone and indapamide X-ray crystal structures in adducts with isozyme II: when three water molecules and the keto-enol tautomerism make the difference” (J Med Chem, 2009):

Molecular target: Carbonic anhydrase 3 (Homo sapiens) (UniProt P07451)
Sequence (P07451 whole entry): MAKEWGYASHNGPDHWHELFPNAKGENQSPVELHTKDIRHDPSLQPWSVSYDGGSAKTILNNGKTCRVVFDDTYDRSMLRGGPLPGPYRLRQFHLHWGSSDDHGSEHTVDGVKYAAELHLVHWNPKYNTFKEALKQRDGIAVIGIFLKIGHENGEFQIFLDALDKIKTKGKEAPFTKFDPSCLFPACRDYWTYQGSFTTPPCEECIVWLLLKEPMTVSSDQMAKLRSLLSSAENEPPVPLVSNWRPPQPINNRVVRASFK
Description: Inhibition of human recombinant CA3 by stopped flow CO2 hydration assay

With `NS(=O)(=O)c1cc(C2(O)NC(=O)c3ccccc32)ccc1Cl` (stereo unspecified) the Ki was 11 µM.
